Test results published in PubChem BioAssay AID1259411 (Chemical Carcinogenesis Research Information System (CCRIS), 2018).
Calls of active or inactive are those of the source. The rule behind the calls is not given here.

System: rodent carcinogenicity bioassays, tumor incidence
Assay: CCRIS carcinogenicity studies
Summary of the method: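 NCI-built, expert-reviewed records of carcinogenicity and related test outcomes (mutagenicity, tumor promotion/inhibition) compiled from published and report sources, historical span 1985-2011, not updated.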

O=[N+]([O-])c1ccc(O)cc1
carcinogen call (Species: MOUSE, Strain/Sex: SWISS/FEMALE, Route: DERMAL, Dose: 0, 40, 80, 160 MG/KG IN ACETONE 3 D/WK FOR 78 WK (STUDY DURATION: 18 MO), Dose: 0, 40, 80, 160 MG/KG IN ACETONE 3 D/WK FOR 78 WK (STUDY DURATION: 18 MO)): inactive; negative
carcinogen call (Species: MOUSE, Strain/Sex: SWISS/MALE, Route: DERMAL, Dose: 0, 40, 80, 160 MG/KG IN ACETONE 3 D/WK FOR 78 WK (STUDY DURATION: 18 MO), Dose: 0, 40, 80, 160 MG/KG IN ACETONE 3 D/WK FOR 78 WK (STUDY DURATION: 18 MO)): inactive; negative

CCNN
carcinogen call (Species: MOUSE, Strain/Sex: SWISS/FEMALE, Route: ORAL, Dose: 0, 0.0125% IN DRINKING WATER FOR LIFE FOR AN AVERAGE DAILY DOSE OF 0, 0.92 MG (STUDY DURATION: 130 WK), Dose: 0, 0.0125% IN DRINKING WATER FOR LIFE FOR AN AVERAGE DAILY DOSE OF 0, 0.92 MG (STUDY DURATION: 130 WK), Tumor Site: Type of Lesion: LUNG: ADENOMA OR ADENOCARCINOMA, BLOOD VESSEL: ANGIOSARCOMA OR ANGIOMA): active; positive
carcinogen call (Species: MOUSE, Strain/Sex: SWISS/MALE, Route: ORAL, Dose: 0, 0.0125% IN DRINKING WATER FOR LIFE FOR AN AVERAGE DAILY DOSE OF 0, 1.52 MG (STUDY DURATION: 130 WK), Dose: 0, 0.0125% IN DRINKING WATER FOR LIFE FOR AN AVERAGE DAILY DOSE OF 0, 1.52 MG (STUDY DURATION: 130 WK), Tumor Site: Type of Lesion: LUNG: ADENOMA OR ADENOCARCINOMA, BLOOD VESSEL: ANGIOSARCOMA OR ANGIOMA): active; positive

Nc1ccccc1
carcinogen call (Species: MOUSE, Strain/Sex: B6C3F1/FEMALE, Route: ORAL, Dose: 0, 0.6, 1.2% OF DIET, Dose: 0, 0.6, 1.2% OF DIET): inactive; negative
carcinogen call (Species: MOUSE, Strain/Sex: B6C3F1/MALE, Route: INTRAPERITONEAL, Dose: 0, 0.15 UMOL/G ONCE IN SODIUM ACETATE BUFFER (STUDY DURATION: 10 MO)): inactive; negative
carcinogen call (Species: MOUSE, Strain/Sex: B6C3F1/MALE, Route: ORAL, Dose: 0, 0.6, 1.2% OF DIET, Dose: 0, 0.6, 1.2% OF DIET): inactive; negative
carcinogen call (Species: RAT, Strain/Sex: F344/FEMALE, Route: ORAL, Dose: 0, 0.3, 0.6% OF DIET, Dose: 0, 0.3, 0.6% OF DIET, Tumor Site: Type of Lesion: SPLEEN OR BODY CAVITIES (BOTH PLEURAL AND PERITONEAL): FIBROSARCOMA OR SARCOMA, NOS): active; positive
carcinogen call (Species: RAT, Strain/Sex: F344/FEMALE, Route: ORAL, Dose: 0, 3000, 6000 PPM IN DIET FOR 103 WK (STUDY DURATION: 108 WK), Dose: 0, 3000, 6000 PPM IN DIET FOR 103 WK (STUDY DURATION: 108 WK), Tumor Site: Type of Lesion: SPLEEN OR PERITONEUM: SARCOMA): active; positive
carcinogen call (Species: RAT, Strain/Sex: F344/MALE, Route: ORAL, Dose: 0, 0.3, 0.6% OF DIET, Dose: 0, 0.3, 0.6% OF DIET, Tumor Site: Type of Lesion: SPLEEN AND BODY CAVITIES (BOTH PLEURAL AND PERITONEAL): FIBROSARCOMA OR SARCOMA, NOS, HEMANGIOSARCOMA): active; positive
carcinogen call (Species: RAT, Strain/Sex: F344/MALE, Route: ORAL, Dose: 0, 3000, 6000 PPM IN DIET FOR 103 WK (STUDY DURATION: 108 WK), Dose: 0, 3000, 6000 PPM IN DIET FOR 103 WK (STUDY DURATION: 108 WK), Tumor Site: Type of Lesion: SPLEEN OR PERITONEUM: SARCOMA): active; positive

Cc1c(N)nc(C)c2c1[nH]c1ccccc12
carcinogen call (Species: MOUSE, Strain/Sex: CDF1/FEMALE, Route: ORAL, Dose: 0, 200 PPM IN DIET FOR 621 D, Tumor Site: Type of Lesion: LIVER: HEPATOCELLULAR CARCINOMA): active; positive
carcinogen call (Species: MOUSE, Strain/Sex: DDY/FEMALE, Route: BLADDER IMPLANT, Dose: 0, 5% IN PARAFFIN PELLET (STUDY DURATION: 40 WK), Tumor Site: Type of Lesion: URINARY BLADDER: TRANSITIONAL CELL CARCINOMA): active; positive
carcinogen call (Species: RAT, Strain/Sex: F344/FEMALE, Route: ORAL, Dose: 0, 0.02% IN PELLET DIET FOR DURATION OF STUDY (STUDY DURATION: 365 D), Tumor Site: Type of Lesion: LIVER: TRABECULAR CARCINOMA, ADENOCARCINOMA): active; positive
carcinogen call (Species: RAT, Strain/Sex: F344/MALE, Route: ORAL, Dose: 0, 0.015% IN PELLET DIET FOR DURATION OF STUDY (STUDY DURATION: 365 D), Tumor Site: Type of Lesion: LIVER: TRABECULAR CARCINOMA, ADENOCARCINOMA): active; positive

C=C(C#N)C(=O)O
carcinogen call (Species: RAT, Strain/Sex: F344/FEMALE, Route: SUBCUTANEOUS IMPLANT, Dose: 0.12 G INJECTED INTO 2 SITES ON THE LATERAL ABDOMEN, 2 SITES ON THE LATERAL CHEST REGION AND 1 SITE ON THE BACK (STUDY D, Tumor Site: Type of Lesion: IMPLANT SITE: MALIGNANT HISTIOCYTOMA): active; positive

CC(COc1ccc(C(C)(C)C)cc1)OS(=O)OCCCl (stereo not drawn)
carcinogen call (Species: DOG, Strain/Sex: MONGREL/MALE,FEMALE, Route: ORAL, Dose: 0, 500, 828-1420 PPM IN DIET FOR 3.5 YR, Dose: 0, 500, 828-1420 PPM IN DIET FOR 3.5 YR, Tumor Site: Type of Lesion: BILE DUCT: ADENOCARCINOMA, GALL BLADDER: ADENOCARCINOMA): active; positive
carcinogen call (Species: MOUSE, Strain/Sex: B6C3F1/MALE,FEMALE, Route: GAVAGE/ORAL, Dose: 464 MG/KG FROM D 7-28 OF LIFE THEN 1112 PPM IN DIET, Tumor Site: Type of Lesion: LIVER: HEPATOMA): active; positive
carcinogen call (Species: RAT, Strain/Sex: WISTAR/MALE,FEMALE, Route: ORAL, Dose: 500, 1580, 5000 PPM IN DIET FOR 2 YR, Dose: 500, 1580, 5000 PPM IN DIET FOR 2 YR, Tumor Site: Type of Lesion: LIVER: HEPATOMA, CHOLANGIOMA): active; positive

O=NN(CCO)C(=O)NCCCl
carcinogen call (Species: RAT, Strain/Sex: F344/FEMALE, Route: ORAL, Dose: 0, 42 MG/L IN DRINKING WATER 5 D/WK FOR 30 WK (STUDY DURATION: LIFETIME), Tumor Site: Type of Lesion: LIVER: TUMOR, UTERUS: TUMOR, SKIN: TUMOR, Tumor Site: Type of Lesion: LIVER: TUMOR, UTERUS: TUMOR, SKIN: TUMOR): active; positive
carcinogen call (Species: RAT, Strain/Sex: F344/MALE, Route: ORAL, Dose: 0, 42 MG/L IN DRINKING WATER 5 D/WK FOR 30 WK (STUDY DURATION: LIFETIME), Tumor Site: Type of Lesion: LIVER: TUMOR, LUNG: TUMOR, MESOTHELIUM: TUMOR, SKIN: TUMOR, Tumor Site: Type of Lesion: LIVER: TUMOR, LUNG: TUMOR, MESOTHELIUM: TUMOR, SKIN: TUMOR): active; positive

c1cc2ccc3cc4cccc5ccc6cc(c1)c2c3c6c54
carcinogen call (Species: MOUSE, Route: DERMAL, Tumor Site: Type of Lesion: INTEGUMENTARY SYSTEM (SKIN)): active; positive
carcinogen call (Species: RAT, Strain/Sex: OSBORNE-MENDEL/FEMALE, Route: LUNG IMPLANT, Dose: 0, 0.16, 0.83 MG IN BEESWAX/TRIOCTANOIN (STUDY DURATION: LIFETIME), Dose: 0, 0.16, 0.83 MG IN BEESWAX/TRIOCTANOIN (STUDY DURATION: LIFETIME), Tumor Site: Type of Lesion: LUNG: EPIDERMOID CARCINOMA): active; positive
